# Read-outs that look alike come from different tables or passages of the source.
# Key:
# hJAK2 = hJAK2 (Homo sapiens (Human), UniProt O60674); experiment: hJAK2 LANCE TR-FRET enzymatic assay; assay type: biochemical; conditions: read-out: JAK2 IC50
# IKKε = IKKε (Homo sapiens (Human), UniProt Q14164); experiment: IKKε TR-FRET enzymatic assay; assay type: biochemical; conditions: read-out: IKKe IC50
# TBK1 = TBK1 (Homo sapiens (Human), UniProt Q9UHD2); experiment: TBK1 TR-FRET enzymatic assay;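 further: phosphorylation of a biotinylated Ser/Thr peptide by purified full-length recombinant TBK1, read by TR-FRET after 240 min at 25 °C, IC50 is the geometric mean of at least four runs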
# Sequence of TBK1 (Q9UHD2 whole entry): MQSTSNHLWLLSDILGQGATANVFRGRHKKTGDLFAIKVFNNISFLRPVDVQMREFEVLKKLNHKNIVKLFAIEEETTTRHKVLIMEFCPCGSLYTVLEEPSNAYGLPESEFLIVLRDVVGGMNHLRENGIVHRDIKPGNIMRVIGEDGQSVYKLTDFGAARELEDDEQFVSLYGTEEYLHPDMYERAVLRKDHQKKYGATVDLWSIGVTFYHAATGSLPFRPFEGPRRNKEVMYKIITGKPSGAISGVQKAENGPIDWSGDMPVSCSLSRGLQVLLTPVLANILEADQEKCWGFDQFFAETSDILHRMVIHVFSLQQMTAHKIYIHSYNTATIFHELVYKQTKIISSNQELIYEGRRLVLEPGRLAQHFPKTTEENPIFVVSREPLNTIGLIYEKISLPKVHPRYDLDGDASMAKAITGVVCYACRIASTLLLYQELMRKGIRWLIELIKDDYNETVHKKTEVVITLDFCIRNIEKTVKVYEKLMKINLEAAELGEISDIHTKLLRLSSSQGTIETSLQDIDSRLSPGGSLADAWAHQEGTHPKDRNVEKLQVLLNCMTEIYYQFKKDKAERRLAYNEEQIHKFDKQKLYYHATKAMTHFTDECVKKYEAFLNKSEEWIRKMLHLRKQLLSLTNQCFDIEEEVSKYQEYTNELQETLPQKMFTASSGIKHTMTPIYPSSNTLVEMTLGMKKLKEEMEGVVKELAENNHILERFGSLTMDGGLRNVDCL
# Description: Enzymatic activity of IKKε and TBK1 was measured using a homogeneous time resolved fluorescence resonance energy transfer (TR-FRET) assay that monitors enzyme dependent phosphorylation of a biotinylated serine/threonine peptide substrate. […] TBK1 and IKKε were expressed and purified as full length recombinant proteins. Detection reagents for the assay were purchased from Cisbio. […] After an assay reaction time of 240 minutes at 25° C., reactions were terminated with EDTA.
# All IC50 values represent geometric mean values of a minimum of four determinations.
# [1] = TR-FRET, 2×Km ATP, geometric mean of minimum four determinations
# Sequence of IKKε (Q14164 whole entry): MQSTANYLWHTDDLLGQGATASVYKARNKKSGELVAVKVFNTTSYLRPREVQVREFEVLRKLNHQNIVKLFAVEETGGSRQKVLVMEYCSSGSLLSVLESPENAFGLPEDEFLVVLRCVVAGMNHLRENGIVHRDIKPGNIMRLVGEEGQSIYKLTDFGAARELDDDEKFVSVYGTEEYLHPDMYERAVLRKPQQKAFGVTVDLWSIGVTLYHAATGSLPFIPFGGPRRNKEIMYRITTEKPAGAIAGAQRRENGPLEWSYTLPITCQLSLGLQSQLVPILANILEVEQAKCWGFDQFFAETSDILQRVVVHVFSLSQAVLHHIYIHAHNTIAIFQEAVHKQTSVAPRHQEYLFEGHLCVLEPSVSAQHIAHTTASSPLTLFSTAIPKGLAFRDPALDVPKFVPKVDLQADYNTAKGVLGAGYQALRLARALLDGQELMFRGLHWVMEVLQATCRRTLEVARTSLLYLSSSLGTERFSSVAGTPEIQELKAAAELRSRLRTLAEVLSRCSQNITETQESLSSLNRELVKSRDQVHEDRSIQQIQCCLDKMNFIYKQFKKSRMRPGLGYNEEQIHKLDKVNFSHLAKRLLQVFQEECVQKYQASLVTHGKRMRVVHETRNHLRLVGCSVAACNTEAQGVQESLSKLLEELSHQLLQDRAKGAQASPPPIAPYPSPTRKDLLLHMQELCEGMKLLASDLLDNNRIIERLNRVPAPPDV
# Sequence of hJAK2 (O60674 whole entry): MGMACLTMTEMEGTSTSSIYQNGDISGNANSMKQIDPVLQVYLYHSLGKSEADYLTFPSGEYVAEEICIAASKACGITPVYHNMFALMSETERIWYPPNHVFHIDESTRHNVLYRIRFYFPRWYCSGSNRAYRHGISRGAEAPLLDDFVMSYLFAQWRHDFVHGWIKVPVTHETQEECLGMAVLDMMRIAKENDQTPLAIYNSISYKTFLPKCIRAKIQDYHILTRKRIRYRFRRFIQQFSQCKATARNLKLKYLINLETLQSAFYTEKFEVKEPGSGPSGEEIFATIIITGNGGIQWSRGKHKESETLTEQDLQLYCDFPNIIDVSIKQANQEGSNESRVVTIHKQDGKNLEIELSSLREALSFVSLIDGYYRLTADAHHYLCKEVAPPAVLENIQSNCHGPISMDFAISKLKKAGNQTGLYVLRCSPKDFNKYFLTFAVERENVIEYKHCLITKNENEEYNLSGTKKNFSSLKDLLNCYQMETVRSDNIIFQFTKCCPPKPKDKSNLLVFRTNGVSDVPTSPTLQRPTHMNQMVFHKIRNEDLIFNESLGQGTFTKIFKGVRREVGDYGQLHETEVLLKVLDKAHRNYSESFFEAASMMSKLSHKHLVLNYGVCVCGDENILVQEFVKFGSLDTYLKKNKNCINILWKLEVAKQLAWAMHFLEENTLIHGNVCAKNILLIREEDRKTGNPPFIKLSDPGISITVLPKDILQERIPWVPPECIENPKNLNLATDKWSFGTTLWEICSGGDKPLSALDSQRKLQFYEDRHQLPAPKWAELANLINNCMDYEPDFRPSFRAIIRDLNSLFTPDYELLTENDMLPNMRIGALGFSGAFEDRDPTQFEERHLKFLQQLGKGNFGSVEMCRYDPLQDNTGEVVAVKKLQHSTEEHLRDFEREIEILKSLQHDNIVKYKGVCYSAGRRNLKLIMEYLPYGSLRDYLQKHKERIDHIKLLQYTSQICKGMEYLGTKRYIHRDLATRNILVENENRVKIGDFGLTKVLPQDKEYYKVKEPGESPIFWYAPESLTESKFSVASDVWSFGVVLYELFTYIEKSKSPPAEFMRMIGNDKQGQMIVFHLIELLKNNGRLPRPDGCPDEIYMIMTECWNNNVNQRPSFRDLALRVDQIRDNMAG
SMILES,IC50 (hJAK2),IC50 (IKKε),IC50 (TBK1),IC50 (IKKε; [1])
"CC(C)(O)c1ccc(Nc2ncnc(-c3ccc(O[C@H]4CCN(C(=O)CO)C[C@H]4F)c(C#N)c3)n2)cn1 [Example 388, 2-(((3R,4S)-3-fluoro-1-(2-hydroxyacetyl)piperidin-4-yl)oxy)-5-(4-((6-(2-hydroxypropan-2-yl)pyridin-3-yl)amino)-1,3,5-triazin-2-yl)benzonitrile]",≥ 1000 nM,4 nM,6 nM,
"COc1cc(Nc2ncnc(-c3ccc(O[C@H]4CCN(C(=O)[C@H](C)O)C[C@H]4F)c(C#N)c3)n2)ccc1N1CCN(C2COC2)CC1 [Example 389, 2-(((3R,4S)-3-fluoro-1-((S)-2-hydroxypropanoyl)piperidin-4-yl)oxy)-5-(4-((3-methoxy-4-(4-(oxetan-3-yl)piperazin-1-yl)phenyl)amino)-1,3,5-triazin-2-yl)benzonitrile]",55 nM,1 nM,2 nM,
"N#Cc1cc(-c2ncnc(Nc3ccc(N4CCN(C5COC5)CC4)cc3)n2)ccc1O[C@H]1CCN(C(=O)c2ccncc2N)C[C@H]1F [Example 390, 2-(((3R,4S)-1-(3-aminoisonicotinoyl)-3-fluoropiperidin-4-yl)oxy)-5-(4-((4-(4-(oxetan-3-yl)piperazin-1-yl)phenyl)amino)-1,3,5-triazin-2-yl)benzonitrile]",37 nM,165 nM,65 nM,
"N#Cc1cc(-c2ncnc(Nc3ccc(N4CCN(C5COC5)CC4)cc3)n2)ccc1O[C@H]1CCN(C(=O)c2[nH]ncc2N)C[C@H]1F [Example 391, 2-(((3R,4S)-1-(4-amino-1H-pyrazole-5-carbonyl)-3-fluoropiperidin-4-yl)oxy)-5-(4-((4-(4-(oxetan-3-yl)piperazin-1-yl)phenyl)amino)-1,3,5-triazin-2-yl)benzonitrile]",122 nM,9 nM,6 nM,
"COc1cc(Nc2ncnc(-c3ccc(O[C@H]4CCN(C(=O)CO)C[C@H]4F)c(C#N)c3)n2)ccc1N1CCN(C2COC2)CC1 [Example 392, 2-(((3R,4S)-3-fluoro-1-(2-hydroxyacetyl)piperidin-4-yl)oxy)-5-(4-((3-methoxy-4-(4-(oxetan-3-yl)piperazin-1-yl)phenyl)amino)-1,3,5-triazin-2-yl)benzonitrile]",26 nM,1 nM,5 nM,
"N#Cc1cc(-c2ncnc(Nc3ccc(N4CCN(C5COC5)CC4)c(OC(F)F)c3)n2)ccc1O[C@H]1CCN(C(=O)CO)C[C@H]1F [Example 393, 5-(4-((3-(difluoromethoxy)-4-(4-(oxetan-3-yl)piperazin-1-yl)phenyl)amino)-1,3,5-triazin-2-yl)-2-(((3R,4S)-3-fluoro-1-(2-hydroxyacetyl)piperidin-4-yl)oxy)benzonitrile]",29 nM,1 nM,3 nM,
"Cc1cc(Nc2ncnc(-c3ccc(O[C@H]4CCN(C(=O)CO)C[C@H]4F)c(C#N)c3)n2)ccc1N1CCN(C2COC2)CC1 [Example 394, 2-(((3R,4S)-3-fluoro-1-(2-hydroxyacetyl)piperidin-4-yl)oxy)-5-(4-((3-methyl-4-(4-(oxetan-3-yl)piperazin-1-yl)phenyl)amino)-1,3,5-triazin-2-yl)benzonitrile]",64 nM,1 nM,2 nM,
"C[C@H](O)C(=O)N1CC[C@H](Oc2ccc(-c3ncnc(Nc4ccc(N5CCN(C6COC6)CC5)c(OC(F)F)c4)n3)cc2C#N)[C@H](F)C1 [Example 395, 5-(4-((3-(difluoromethoxy)-4-(4-(oxetan-3-yl)piperazin-1-yl)phenyl)amino)-1,3,5-triazin-2-yl)-2-(((3R,4S)-3-fluoro-1-((S)-2-hydroxypropanoyl)piperidin-4-yl)oxy)benzonitrile]",119 nM,1 nM,2 nM,
"Cc1cc(Nc2ncnc(-c3ccc(O[C@H]4CCN(C(=O)[C@H](C)O)C[C@H]4F)c(C#N)c3)n2)ccc1N1CCN(C2COC2)CC1 [Example 396, 2-(((3R,4S)-3-fluoro-1-((S)-2-hydroxypropanoyl)piperidin-4-yl)oxy)-5-(4-((3-methyl-4-(4-(oxetan-3-yl)piperazin-1-yl)phenyl)amino)-1,3,5-triazin-2-yl)benzonitrile]",137 nM,1 nM,2 nM,
"CC(C)(O)c1cc(Nc2ncnc(-c3ccc(O[C@H]4CCN(C(=O)CO)C[C@H]4F)c(C#N)c3)n2)ccn1 [Example 397, 2-(((3R,4S)-3-fluoro-1-(2-hydroxyacetyl)piperidin-4-yl)oxy)-5-(4-((2-(2-hydroxypropan-2-yl)pyridin-4-yl)amino)-1,3,5-triazin-2-yl)benzonitrile]",960 nM,2 nM,2 nM,
"CN1CC[C@H](Oc2ccc(Nc3ncnc(-c4ccc(O[C@H]5CCN(C(=O)[C@@H](O)CO)C[C@H]5F)c(C#N)c4)n3)cc2)[C@H](F)C1 [Example 398, 2-(((3R,4S)-1-((S)-2,3-dihydroxypropanoyl)-3-fluoropiperidin-4-yl)oxy)-5-(4-((4-(((3R,4S)-3-fluoro-1-methylpiperidin-4-yl)oxy)phenyl)amino)-1,3,5-triazin-2-yl)benzonitrile]",763 nM,1 nM,3 nM,
"COc1cc(Nc2ncnc(-c3ccc(N4C[C@H](O)CCC4=O)c(C#N)c3)n2)ccc1N1CCN(C2COC2)CC1 [Example 399, (R)-2-(5-hydroxy-2-oxopiperidin-1-yl)-5-(4-((3-methoxy-4-(4-(oxetan-3-yl)piperazin-1-yl)phenyl)amino)-1,3,5-triazin-2-yl)benzonitrile]",174 nM,,152 nM,270 nM
"C[C@H](O)C(=O)N1CC[C@H](Oc2ccc(-c3ncnc(Nc4ccc(O[C@H]5CCN(C)C[C@H]5F)cc4)n3)cc2C#N)[C@H](F)C1 [Example 400, 2-(((3R,4S)-3-fluoro-1-((S)-2-hydroxypropanoyl)piperidin-4-yl)oxy)-5-(4-((4-(((3R,4S)-3-fluoro-1-methylpiperidin-4-yl)oxy)phenyl)amino)-1,3,5-triazin-2-yl)benzonitrile]",≥ 1000 nM,,3 nM,1 nM
"COCC(=O)N1CC[C@H](Oc2ccc(-c3ncnc(Nc4ccc(N5CCN(C6COC6)CC5)c(F)c4)n3)cc2C#N)[C@H](F)C1 [Example 402, 2-(((3R,4S)-3-fluoro-1-(2-methoxyacetyl)piperidin-4-yl)oxy)-5-(4-((3-fluoro-4-(4-(oxetan-3-yl)piperazin-1-yl)phenyl)amino)-1,3,5-triazin-2-yl)benzonitrile]",≥ 1000 nM,,3 nM,3 nM
"CN1C(=O)CC[C@H]1C(=O)N1CC[C@H](Oc2ccc(-c3ncnc(Nc4ccc(N5CCN(C6COC6)CC5)cc4)n3)cc2C#N)[C@H](F)C1 [Example 407, 2-(((3R,4S)-3-fluoro-1-((S)-1-methyl-5-oxopyrrolidine-2-carbonyl)piperidin-4-yl)oxy)-5-(4-((4-(4-(oxetan-3-yl)piperazin-1-yl)phenyl)amino)-1,3,5-triazin-2-yl)benzonitrile]",≥ 1000 nM,,165 nM,165 nM
"CN1C(=O)CC[C@H]1C(=O)N1CC[C@H](Oc2ccc(-c3ncnc(Nc4ccc(N5CCN(C6COC6)CC5)c(F)c4)n3)cc2C#N)[C@H](F)C1 [Example 408, 2-(((3R,4S)-3-fluoro-1-((S)-1-methyl-5-oxopyrrolidine-2-carbonyl)piperidin-4-yl)oxy)-5-(4-((3-fluoro-4-(4-(oxetan-3-yl)piperazin-1-yl)phenyl)amino)-1,3,5-triazin-2-yl)benzonitrile]",≥ 1000 nM,,86 nM,119 nM
"C[C@@H](O)C(=O)N1C[C@@H](F)[C@@H](Oc2ccc(-c3ncnc(Nc4ccc(N5CCN(C6COC6)CC5)cc4)n3)cc2C#N)C[C@@H]1C [Example 412, 2-(((2S,4S,5R)-5-fluoro-1-((R)-2-hydroxypropanoyl)-2-methylpiperidin-4-yl)oxy)-5-(4-((4-(4-(oxetan-3-yl)piperazin-1-yl)phenyl)amino)-1,3,5-triazin-2-yl)benzonitrile]",≥ 1000 nM,,43 nM,202 nM
"N#Cc1cc(-c2ncnc(Nc3ccc(N4CCN(C5COC5)CC4)cc3)n2)ccc1O[C@H]1CCN(C(=O)c2cccc(=O)[nH]2)C[C@H]1F [Example 413, 2-(((3R,4S)-3-fluoro-1-(6-oxo-1,6-dihydropyridine-2-carbonyl)piperidin-4-yl)oxy)-5-(4-((4-(4-(oxetan-3-yl)piperazin-1-yl)phenyl)amino)-1,3,5-triazin-2-yl)benzonitrile]",109 nM,,3 nM,2 nM
"N#Cc1cc(-c2ncnc(Nc3ccc(N4CCN(C5COC5)CC4)cc3)n2)ccc1O[C@H]1CCN(C(=O)C2CNC(=O)N2)C[C@H]1F (stereo partly drawn) [Example 414, 2-(((3R,4S)-3-fluoro-1-(2-oxoimidazolidine-4-carbonyl)piperidin-4-yl)oxy)-5-(4-((4-(4-(oxetan-3-yl)piperazin-1-yl)phenyl)amino)-1,3,5-triazin-2-yl)benzonitrile]",163 nM,,3 nM,3 nM
"C[C@H](O)C(=O)N1C[C@@H](F)[C@@H](Oc2ccc(-c3ncnc(Nc4ccc(N5CCN(C6COC6)CC5)cc4)n3)cc2C#N)C[C@@H]1C [Example 415, 2-(((2S,4S,5R)-5-fluoro-1-((S)-2-hydroxypropanoyl)-2-methylpiperidin-4-yl)oxy)-5-(4-((4-(4-(oxetan-3-yl)piperazin-1-yl)phenyl)amino)-1,3,5-triazin-2-yl)benzonitrile]",≥ 1000 nM,,58 nM,142 nM
"N#CCCC(=O)N1CC[C@H](Oc2ccc(-c3ncnc(Nc4ccc(N5CCN(C6COC6)CC5)cc4)n3)cc2C#N)[C@H](F)C1 [Example 417, 2-(((3R,4S)-1-(3-cyanopropanoyl)-3-fluoropiperidin-4-yl)oxy)-5-(4-((4-(4-(oxetan-3-yl)piperazin-1-yl)phenyl)amino)-1,3,5-triazin-2-yl)benzonitrile]",694 nM,,17 nM,79 nM
